“And” between values parts separate entries of the source, which are not always exact repeats. Equal values may be shown once. The source made the active and inactive calls.
What was measured:
[1] = luciferase reporter signal suppression in cells – H4 neuroglioma cells, luminescence, dose response (AID 1990); type: functional, cell-based
[2] = Luminescence Cell-Based Dose Response HTS to Identify Inhibitors of 5'UTR Stem-Loop Driven Prion Protein mRNA Translation in H4 Neuroglioblastoma Cells. [Related pubchem assays: 1827 (Project Summary), 1813 (Primary HTS)]; type: functional
[3] = alpha-synuclein stem-loop luciferase translation blockers – H4 neuroglioma cells, luminescence, confirmation (AID 1988); type: functional, cell-based
Cytochrome P450 3A4 = Cytochrome P450 3A4 (Homo sapiens, UniProt P08684);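 note: CYP3A4 tested as one member of a cytochrome P450 panel screen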
H9c2 = test: cells; type: functional, cell-based; settings: Rattus norvegicus, H9c2, Myocardium;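 note: confirmatory concentration-response retest of ultra-high-throughput screening hits for modulation of myocardial damage; cell death induced by hydrogen peroxide oxidative stress; compound pretreatment for 60 min then peroxide exposure for 2 h; potency is for protecting the cells against peroxide damage rather than for killing them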
[4] = molecular target: T1, Heat shock factor protein 1 (Mus musculus, UniProt P38532); test: enhancement of HSF1-driven luciferase signal – cell-based, NIH3T3, luminescence, dose retest, confirmation (AID 435004); type: functional;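 note: stress induced by proteasome inhibitor MG132 added 30 min after compound; luciferase reporter driven by HSF1 response element in NIH3T3 cells; actives raise luminescence as potentiators of the MG132 stress response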
T1 sequence (P38532 whole entry): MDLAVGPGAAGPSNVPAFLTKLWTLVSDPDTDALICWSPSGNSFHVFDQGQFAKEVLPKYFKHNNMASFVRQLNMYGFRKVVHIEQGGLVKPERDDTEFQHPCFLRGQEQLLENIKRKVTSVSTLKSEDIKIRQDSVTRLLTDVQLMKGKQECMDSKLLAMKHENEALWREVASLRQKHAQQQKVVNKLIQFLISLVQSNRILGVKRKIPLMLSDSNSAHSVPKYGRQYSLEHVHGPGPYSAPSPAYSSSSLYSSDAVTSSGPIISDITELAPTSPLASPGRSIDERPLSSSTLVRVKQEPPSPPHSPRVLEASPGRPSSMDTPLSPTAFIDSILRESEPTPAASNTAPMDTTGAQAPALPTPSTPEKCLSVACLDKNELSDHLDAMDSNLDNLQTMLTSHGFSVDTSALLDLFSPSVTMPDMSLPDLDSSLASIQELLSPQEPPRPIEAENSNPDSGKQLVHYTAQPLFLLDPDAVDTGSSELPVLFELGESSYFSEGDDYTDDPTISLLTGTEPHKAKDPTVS

INS1 = test: INS-1E survival protection against cytokine death – cell-based, luminescence, retest, dose response (AID 449756); type: functional; settings: Rattus norvegicus;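 note: cell death triggered by IL-1 beta plus TNF-alpha plus IFN-gamma mixture; protective hits raise ATP signal compared with cytokine alone wells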
Cytochrome P450 2C9 = Cytochrome P450 2C9 (Homo sapiens, UniProt P11712)
Cytochrome P450 2D6 = Cytochrome P450 2D6 (Homo sapiens, UniProt P10635);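 note: CYP2D6 member of a cytochrome P450 panel assay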
[5] = molecular target: T2, Polyadenylate-binding protein 1 (Homo sapiens, UniProt P11940); test: MLLE binding blockers, Cy5 peptide tracer – biochemical, fluorescence polarization, Cy5-PAM2 peptide, secondary, miRNA deadenylation inhibitor project, dose response (AID 602260); type: functional; settings: read-out: IC50_Mean
[6] = molecular target: T2, Polyadenylate-binding protein 1; test: MLLE domain peptide-binding blockers, IC50 – biochemical, fluorescence polarization, FITC-PAM2 peptide, dose response (AID 602259); type: functional; settings: read-out: IC50_Mean

Cytochrome P450 3A4, sequence (P08684 whole entry): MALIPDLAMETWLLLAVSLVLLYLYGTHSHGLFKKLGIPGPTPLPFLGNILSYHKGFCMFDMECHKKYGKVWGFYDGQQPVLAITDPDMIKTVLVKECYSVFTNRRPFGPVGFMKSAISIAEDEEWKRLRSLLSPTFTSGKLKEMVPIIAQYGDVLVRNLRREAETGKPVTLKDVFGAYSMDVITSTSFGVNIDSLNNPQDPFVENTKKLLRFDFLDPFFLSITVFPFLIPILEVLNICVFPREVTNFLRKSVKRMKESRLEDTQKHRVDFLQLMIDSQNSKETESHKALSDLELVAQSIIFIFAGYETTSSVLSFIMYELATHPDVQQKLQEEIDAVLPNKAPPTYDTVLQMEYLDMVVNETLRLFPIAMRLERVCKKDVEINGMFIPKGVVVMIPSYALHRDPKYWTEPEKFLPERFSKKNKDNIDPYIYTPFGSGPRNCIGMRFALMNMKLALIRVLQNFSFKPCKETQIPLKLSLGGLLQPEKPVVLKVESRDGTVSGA
T2 sequence (P11940 whole entry, the tested form may be a part): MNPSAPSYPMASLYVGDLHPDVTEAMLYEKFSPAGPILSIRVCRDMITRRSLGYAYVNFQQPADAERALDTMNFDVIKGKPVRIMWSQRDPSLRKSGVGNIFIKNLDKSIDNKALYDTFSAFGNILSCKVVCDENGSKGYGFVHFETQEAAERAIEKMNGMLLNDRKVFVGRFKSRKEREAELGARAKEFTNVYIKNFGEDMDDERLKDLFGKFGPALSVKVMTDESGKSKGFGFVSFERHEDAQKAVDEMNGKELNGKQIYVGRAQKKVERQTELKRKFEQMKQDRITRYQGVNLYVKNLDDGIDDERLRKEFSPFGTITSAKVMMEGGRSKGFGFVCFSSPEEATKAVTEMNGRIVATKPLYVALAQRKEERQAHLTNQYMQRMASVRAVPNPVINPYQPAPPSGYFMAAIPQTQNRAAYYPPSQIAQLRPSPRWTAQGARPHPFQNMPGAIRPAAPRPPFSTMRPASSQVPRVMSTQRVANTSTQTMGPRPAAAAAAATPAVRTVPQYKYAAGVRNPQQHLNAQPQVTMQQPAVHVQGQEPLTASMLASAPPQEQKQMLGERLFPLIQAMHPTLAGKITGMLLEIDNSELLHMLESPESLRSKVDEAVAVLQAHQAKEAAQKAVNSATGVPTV
Cytochrome P450 2C9, sequence (P11712 whole entry): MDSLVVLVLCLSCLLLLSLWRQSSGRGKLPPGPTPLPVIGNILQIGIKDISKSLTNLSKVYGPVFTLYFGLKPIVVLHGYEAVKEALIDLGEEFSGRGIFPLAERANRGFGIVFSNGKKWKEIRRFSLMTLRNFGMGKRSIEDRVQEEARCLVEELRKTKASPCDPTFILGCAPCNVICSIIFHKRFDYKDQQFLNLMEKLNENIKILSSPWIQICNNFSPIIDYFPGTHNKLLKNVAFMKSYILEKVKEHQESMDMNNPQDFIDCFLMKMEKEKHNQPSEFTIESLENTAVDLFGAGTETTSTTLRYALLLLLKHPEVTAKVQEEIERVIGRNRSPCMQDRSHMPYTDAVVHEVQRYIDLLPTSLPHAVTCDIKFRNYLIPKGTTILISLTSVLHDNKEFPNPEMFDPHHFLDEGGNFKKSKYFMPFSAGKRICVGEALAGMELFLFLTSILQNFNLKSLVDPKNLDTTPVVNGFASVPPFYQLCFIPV
Cytochrome P450 2D6, sequence (P10635 whole entry): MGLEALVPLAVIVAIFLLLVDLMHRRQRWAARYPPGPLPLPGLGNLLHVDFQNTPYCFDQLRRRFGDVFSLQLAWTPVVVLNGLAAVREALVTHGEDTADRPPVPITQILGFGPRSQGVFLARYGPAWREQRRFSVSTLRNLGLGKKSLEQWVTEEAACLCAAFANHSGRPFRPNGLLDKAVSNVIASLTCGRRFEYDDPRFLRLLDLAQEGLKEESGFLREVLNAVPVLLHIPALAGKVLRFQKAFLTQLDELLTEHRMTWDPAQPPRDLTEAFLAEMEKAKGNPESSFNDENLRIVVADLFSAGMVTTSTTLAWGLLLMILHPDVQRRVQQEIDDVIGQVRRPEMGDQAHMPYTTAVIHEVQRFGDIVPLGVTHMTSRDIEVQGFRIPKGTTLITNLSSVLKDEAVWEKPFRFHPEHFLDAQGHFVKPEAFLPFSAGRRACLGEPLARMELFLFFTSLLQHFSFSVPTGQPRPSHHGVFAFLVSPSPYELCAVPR

With `Cc1cccc(OC2CCN(Cc3nc(CC4CC4)no3)CC2)c1` the EC50 [1] was > 120 µM (not active), the EC50 [2] was > 120 µM (not active) and the EC50 [3] was 55.7 µM (active).

With `COc1ccc(-c2nc3cnc(N(C)C)nc3n(Cc3cccs3)c2=O)cc1` the AC50 (Cytochrome P450 3A4) was 12.6 µM (inconclusive).

For `CC(C)c1nc2oc3c(NCc4ccccn4)ncnc3c2c2c1COC(C)(C)C2`, the EC50 [1] was 33 µM (active), the EC50 [2] was > 120 µM (not active) and the EC50 [3] was 16.7 µM (active).

In the case of `COc1ccc(CCNc2nc(-c3cccnc3)nc3ccccc23)cc1OC`, the IC50 (H9c2) is reported as > 79 µM (inactive).

In the case of `O=C(Nc1ccc(C(=O)N2CCOCC2)cc1)c1cnn2c(C(F)F)cc(-c3ccccc3)nc12`, the EC50 [4] is reported as > 260 µM (inactive) and the IC50 (H9c2) is reported as > 79 µM (inactive).

With `NN=C(S)Nc1ccc(OC(F)(F)F)cc1` the AC50 (INS1) was > 260 µM (inactive).

For `COc1ccc(C2C(C#N)=C(N)N(c3ccccc3)C3=C2C(=O)CCC3)cc1Cn1cc([N+](=O)[O-])cn1` (stereo not drawn), the EC50 [1] was 13.2 µM (active), the EC50 [2] was 17.1 µM (active) and the EC50 [3] was 105 µM (active).

For `O=C(COC(=O)Cn1[nH]c(=O)c2ccccc2c1=O)NNC(=O)c1ccccc1`, the IC50 (H9c2) was > 79 µM (inactive).

For `CC(C)N(Cc1ccccc1)C(=O)COC(=O)/C=C/c1cnc2ccccc2n1`, the EC50 [4] was 23 µM (active).

In the case of `Oc1cc(O)cc(/C=C\c2ccc(O)c(O)c2)c1`, the AC50 (Cytochrome P450 3A4) is reported as 20 µM (inconclusive) and the AC50 (Cytochrome P450 2C9) is reported as 31.6 µM (inconclusive).

For `CC(C)(C)C(=O)NC(Nc1cccc2cccnc12)C(Cl)(Cl)Cl` (stereo not drawn), the AC50 (INS1) was 23.6 µM (active), the AC50 (Cytochrome P450 2D6) was 15.8 µM (inconclusive) and the AC50 (Cytochrome P450 3A4) was 7.08 µM (inconclusive).

With `c1ccc2c(c1)nnn1c3ccccc3nc21` the EC50 [4] was > 260 µM (inactive).

For `O=C(NNC(=S)Nc1ccc(Br)cc1Cl)c1ccncc1`, the IC50 [5] was > 66 µM (inactive) and the IC50 [6] was > 66 µM (inactive).

For `Cc1cc(=O)oc2c(C)c(OC(C)C(=O)NCC(O)c3ccccc3)ccc12` (stereo not drawn), the EC50 [4] was > 260 µM (inactive).

With `O=C(CN1C(=O)/C(=C\c2cccc(Cl)c2)Sc2ccccc21)NCCCN1CCOCC1` the EC50 [4] was 245 µM (active).

With `CCN(CC)S(=O)(=O)c1ccc(C(=O)NN(C)C2=NS(=O)(=O)c3ccccc32)cc1` the EC50 [4] was > 260 µM (inactive).

With `O=C(C[C@H]1C/C=C\CC[C@H](Cc2ccc(F)cc2)C(=O)O[C@H](c2ccccc2)CNC1=O)N[C@H](CO)Cc1ccccc1` the IC50 (H9c2) was 25.3 µM (active).

With `CCC(CO)NCC#Cc1ccccc1` (stereo not drawn) the EC50 [4] was > 260 µM (inactive).

With `Cc1cccc(N(NC(=O)C(C)(C)O)C(=O)c2ccccc2)c1` the AC50 (Cytochrome P450 3A4) was 17.8 µM (inconclusive) and the AC50 (Cytochrome P450 2C9) was 39.8 µM (inconclusive).

With `Cc1ccc(C)c(C(=O)COC(=O)Cn2[nH]c(=O)c3ccccc3c2=O)c1` the IC50 (H9c2) was 63.5 µM (inactive).

In the case of `Cc1cc(NC(=O)COC(=O)Cn2[nH]c(=O)c3ccccc3c2=O)c([N+](=O)[O-])cc1C`, the IC50 (H9c2) is reported as 31.7 µM (inactive).

With `COc1cc(/C=N/NC(=O)c2ccncc2)ccc1OC(=O)c1ccccc1Cl` the IC50 (H9c2) was > 79 µM (inactive).

In the case of `CCOC(=O)c1ccc(-c2ccc3ncnc(NCc4csc(C)n4)c3c2)o1`, the IC50 (H9c2) is reported as > 79 µM (inactive).

In the case of `NC[C@@H]1O[C@H](C23CC4CC(CC(C4)C2)C3)Cc2c1ccc(O)c2O`, the AC50 (Cytochrome P450 3A4) is reported as 20 µM (inconclusive) and 31.6 µM (inconclusive).

In the case of `COc1cc(/C=N/NC(=O)c2cccnc2)ccc1OC(=O)c1cc(OC)c(OC)c(OC)c1`, the AC50 (INS1) is reported as 1.1 µM (active).

With `Cc1cccc(N/N=C(\C=O)C(=O)c2ccc(Br)cc2)c1` the EC50 [4] was > 260 µM (inactive).
